Like-named read-outs stand apart in the source and are kept apart here.
How the values were obtained:
[1] = system: acetic acid induced writhing movements; assay: Writhing test in mice (acetic acid); assay type: in vivo, mice (NMRI/BOM); conditions: Mus musculus, po, 20 min, read-out: Analgesic ED50, writhing test
Protocol: (§1) Tests for analgesic activity
(§2) 1. Writhing test in mice. (SPF females of the strain NMRI/BOM, weighing 20-25 g). The test substance was administered by gavage 1/2 hour prior to an intraperitoneal injection of acetic acid. The number of writhing movements in 20 minutes was counted.

[2] = system: arachidonic acid induced bronchoconstrictions; assay: Inhibition of arachidonic acid induced bronchoconstrictions in guinea-pigs; assay type: in vivo; conditions: Cavia porcellus, read-out: Inhibition of arachidonic acid induced bronchoconstrictions ID50
Protocol: Inhibition of arachidonic acid (AA) induced bronchoconstrictions in guinea-pigs. Test compounds were given intravenously to anaesthetized guinea-pigs 5 min. before intravenous injection of AA (200-500 μg/kg). Bronchial pressure was measured and percent inhibition calculated as compared to the mean of 3 preceding AA-induced control constrictions obtained after injection of vehicle in the same animal.

[3] = system: arachidonic acid induced aggregation of human platelet rich plasma; assay: Platelet aggregation inhibition test (arachidonic acid induced, human platelet rich plasma); assay type: cell-based; conditions: AA = arachidonic acid
Protocol: Platelet aggregation inhibition test The ability of the test substance to inhibit arachidonic acid induced aggregation of human platelet rich plasma was tested in a HU aggregometer (from H. Upchurch & Co. Ltd.).

PG-synthetase = assay: Prostaglandin-synthetase inhibition test (Vane); assay type: biochemical; conditions: AA = arachidonic acid
in vivo = conditions: mouse; for LD50 at 168 h: po, read-out: Acute toxicity LD50
Protocol: Test for acute toxicity (LD50) in mice
The test substance was administered by gavage.

[4] = Ulcerogenic activity in rats; assay type: in vivo, rats (Sprague-Dawley); conditions: rat, in vivo, po
Protocol: (§3) Ulcerogenic activity in rats
(§4) SPF males of the strain Sprague-Dawley weighing 180-250 g were used. 5 hours after administration by gavage of the test substance the rates were killed by an overdose of ether. The stomachs were removed and opened along the greater curvature. The number of ulcers was assessed and compared to control rats.

[5] = system: brewer's yeast injected rat paw; assay: Randall-Selitto test in rats (analgesia-meter, brewer's yeast paw); assay type: in vivo, rats (Sprague-Dawley); conditions: po, gavage 2 hours after brewer's yeast in paw, read-out: Analgesic ED50, analgesia-meter
Protocol: Tests for analgesic activity 2. Randall-Selitto test in rats. (SPF males of the strain Sprague-Dawley, weighing 90-100 g). The test was performed on the whole as described by Randall and Selitto: Arch. Int. Pharmacodyn. Ther. 111, 409 (1957).

[6] = Tests for analgesic activity (general); assay type: in vivo, mice; rats; conditions: compared with the compounds of the invention, or general
Protocol: as §1, §2
2. Randall-Selitto test in rats. (SPF males of the strain Sprague-Dawley, weighing 90-100 g). The test was performed on the whole as described by Randall and Selitto: Arch. Int. Pharmacodyn. Ther. 111, 409 (1957). An analgesia-meter of the make Ugo Basile was used and the test substance was administered by gavage 2 hours after injection of a suspension of brewer's yeast into the rat paw.

[7] = system: carrageenin-injected rat paw; assay: Test for antiinflammatory activity in rats (carrageenin paw); assay type: in vivo, rats (Sprague-Dawley); conditions: po, read-out: Antiinflammatory test ED50
Protocol: Test for antiinflammatory activity in rats SPF males of the strain Sprague-Dawley, weighing~150 g were used. The test was performed according to Winter et al.: Proc. Soc. […] The test substance was given by gavage 1 hour prior to injection of a carrageenin-suspension into the rat paw.

stomach ulcers = assay: Ulcerogenic activity in rats; assay type: in vivo, rats (Sprague-Dawley); conditions: rats, gavage, 5 hours
Protocol: as §3, §4

[8] = mice, gavage 1/2 hour before i.p. acetic acid, writhings in 20 minutes
[9] = guinea-pigs, intravenous, 5 min before i.v. AA (200-500 μg/kg)

| SMILES | ED50 [1, 8] | ED50 [2, 9] | Inhibition of platelet aggregation IC100 [3] | Inhibition of PG-synthetase IC50 (PG-synthetase) | also measured |
| --- | --- | --- | --- | --- | --- |
| COc1ccc(-c2nc(-c3ccc(F)cc3)n(CCC(=O)O)c2-c2ccc(OC)cc2)cc1 [Compound 1, 1-(2-Carboxyethyl)-2-(4-fluorphenyl)-4,5-bis(4-methoxyphenyl)imidazole, reference compound] | > 200 mg/kg |  |  |  |  |
| COc1ccc(-c2nc(-c3ccccc3F)[nH]c2-c2ccc(OC)cc2)cc1 [Compound 2, 2-(2-Fluorphenyl)-4,5-bis(4-methoxyphenyl)imidazole] | 15 mg/kg | 0.0106 mg/kg | 0.024 μg/190 μg AA | 0.23 μg/10 μg AA |  |
| COc1ccc(-c2nc(-c3cccc(F)c3)[nH]c2-c2ccc(OC)cc2)cc1 [Compound 3, 2-(3-Fluorphenyl)-4,5-bis(4-methoxyphenyl)imidazole] | 3.2 mg/kg | 0.0036 mg/kg | 0.12 μg/190 μg AA | 0.21 μg/10 μg AA |  |
| COc1ccc(-c2nc(-c3ccc(F)cc3)[nH]c2-c2ccc(OC)cc2)cc1 [Compound 4, 2-(4-Fluorphenyl)-4,5-bis(4-methoxyphenyl)imidazole] | 5 mg/kg | 0.0047 mg/kg | 0.048 μg/190 μg AA | 0.18 μg/10 μg AA |  |
| COc1ccc(-c2nc(-c3cccc(F)c3F)[nH]c2-c2ccc(OC)cc2)cc1 [Compound 5, 2-(2,3-Difluorphenyl)-4,5-bis(4-methoxyphenyl)imidazole] | 4.6 mg/kg | 0.0087 mg/kg | 0.024 μg/190 μg AA | 0.21 μg/10 μg AA | LD50 at 168 h (in vivo): 3120 mg/kg |
| COc1ccc(-c2nc(-c3ccc(F)cc3F)[nH]c2-c2ccc(OC)cc2)cc1 [Compound 6, 2-(2,4-Difluorphenyl)-4,5-bis(4-methoxyphenyl)imidazole] | 4 mg/kg | 0.0021 mg/kg | 0.12 μg/190 μg AA | 0.27 μg/10 μg AA | TD50 at 5 h [4]: 1580 mg/kg |
| COc1ccc(-c2nc(-c3cc(F)ccc3F)[nH]c2-c2ccc(OC)cc2)cc1 [Compound 7, 2-(2,5-Difluorphenyl)-4,5-bis(4-methoxyphenyl)imidazole] | 16 mg/kg | 0.0024 mg/kg | 0.024 μg/190 μg AA | 1.71 μg/10 μg AA |  |
| COc1ccc(-c2nc(-c3c(F)cccc3F)[nH]c2-c2ccc(OC)cc2)cc1 [Compound 8, 2-(2,6-Difluorphenyl)-4,5-bis(4-methoxyphenyl)imidazole] | 6.8 mg/kg | 0.0049 mg/kg | 0.012 μg/190 μg AA | 0.13 μg/10 μg AA |  |
| COc1ccc(-c2nc(-c3ccc(F)c(F)c3)[nH]c2-c2ccc(OC)cc2)cc1 [Compound 9, 2-(3,4-Difluorphenyl)-4,5-bis(4-methoxyphenyl)imidazole] | 1.9 mg/kg | 0.0115 mg/kg | 0.006 μg/190 μg AA | 0.11 μg/10 μg AA | ED50 [5]: 0.062 mg/kg; TD50 at 5 h [4]: 45 mg/kg |
| COc1ccc(-c2nc(-c3cc(F)cc(F)c3)[nH]c2-c2ccc(OC)cc2)cc1 [Compound 10, 2-(3,5-Difluorphenyl)-4,5-bis(4-methoxyphenyl)imidazole] | 10 mg/kg | 0.0097 mg/kg | 0.12 μg/190 μg AA | 0.38 μg/10 μg AA | LD50 at 168 h (in vivo): > 2000 mg/kg |
| COc1ccc(-c2nc(C(F)(F)F)[nH]c2-c2ccc(OC)cc2)cc1 [Compound 11, 2-Trifluormethyl-4,5-bis(4-methoxyphenyl)imidazole, reference compound] | 75 mg/kg |  | 0.06 μg/190 μg AA |  | Toxicity (in words) (in vivo): higher toxicity than the compounds of the present invention; Analgesic activity (in words) [6]: weaker analgesic activity |
| COc1ccc(-c2nc(C(C)C)[nH]c2-c2ccc(OC)cc2)cc1 [Compound 12, 2-Isopropyl-4,5-bis(4-methoxyphenyl)imidazole, reference compound] | 200 mg/kg |  |  |  | Analgesic activity (in words) [6]: much weaker analgesic activity than the compounds of the present invention |
| COc1ccc2c(c1)c(CC(=O)O)c(C)n2C(=O)c1ccc(Cl)cc1 [Compound 13, Indomethacin, reference compound] |  |  | 1.19 μg/190 μg AA | 0.65 μg/10 μg AA | ED50 [5]: 0.36 mg/kg; ED50 ([2]; iv): 0.115 mg/kg; ED50 [7]: 28 mg/kg; Ulcerogenic activity ED50 (stomach ulcers): 9.7 mg/kg; ED50 [1]: 8 mg/kg |
| COc1ccc2cc([C@H](C)C(=O)O)ccc2c1 [Compound 14, Naproxen, reference compound] |  |  |  | 0.49 μg/10 μg AA | Ulcerogenic activity ED50 (stomach ulcers): 19.5 mg/kg |
| CC(=O)Oc1ccccc1C(=O)O [Compound 15, Acetyl salicylic acid, reference compound] |  |  | 2.38 μg/190 μg AA | 7.61 μg/10 μg AA | ED50 ([2]; iv): 0.234 mg/kg; ED50 [7]: 350 mg/kg; Ulcerogenic activity ED50 (stomach ulcers): 340 mg/kg; ED50 [1]: 100 mg/kg |
| CC(C)(C)NCC(O)c1ccc(O)c(CO)c1 (stereo not shown) [Compound 16, Salbutamol, reference compound] |  | 0.016 mg/kg |  |  |  |
